The test system of data set [1] is human small cell lung cancer NCI-H1417 cell subcutaneous xenograft tumor. As to the kind of experiment: In vivo efficacy on NCI-H1417 subcutaneous xenograft tumor in CB-17 SCID mouse. Conditions: for TGI (%) (Day 35) / Tumor volume (mm^3) (Day 35): PO, QD. Here is the method:
Week age and weight: 6-8 weeks old, weight: 16-21 grams
Human small cell lung cancer NCI-H1417 cells were cultured in a monolayer in vitro with RPMI-1640 medium plus 10% fetal bovine serum, at 37° C. and 5% CO2 to culture and passage. When the cell saturation was 80%-90%, the cells were collected by trypsin-EDTA digestion, counted, adjusted to 10×10^7 cells/mL and resuspended in PBS.
0.2 mL (10×10^6 cells) of NCI-H1417 cells (with Matrigel, volume ratio 1:1) were subcutaneously inoculated on the right back of each mouse. When the average tumor volume reached about 100-150 mm^3, the mice were grouped randomly and started to be administered.
The experimental vehicle was a 0.5% methyl cellulose solution. 5 g of methyl cellulose was weighed, dissolved in 800 mL of ultrapure water, stirred evenly and brought to the volume of 1000 mL with ultrapure water. The test substance was dissolved in the vehicle, prepared into a uniform solution of a certain concentration, and stored at 4° C.
The experimental indicator was to investigate whether the tumor growth was inhibited, delayed or cured. The tumor diameter was measured with a vernier caliper twice a week. The tumor volume is calculated by the formula of V=0.5a×b^2, where a and b represent the long diameter and short diameter of the tumor, respectively.
TGI (%) is used for the anti-tumor efficacy of the compound. TGI (%) reflects the tumor growth inhibition rate. TGI (%)=[(1−(Average tumor volume at the end of the administration of a certain treatment group−average tumor volume at the beginning of the administration of the treatment group))/(Average tumor volume at the end of treatment in the vehicle control group−Average tumor volume at the beginning of the treatment in the vehicle control group)]×100%. Vehicle control group: Vehicle (0.5% methylcellulose solution).

Data set [2] is described as follows: Hygroscopicity by dynamic vapor adsorption (DVS). The class given is physicochemical. The note with it: 25° C. and 80% RH. Here is the method:
Instrument model: SMS DVS Advantage dynamic vapor adsorption instrument Test conditions: a sample (10˜15 mg) was taken and placed in the DVS sample pan for testing.
Balance: dm/dt=0.01%/min (shortest: 10 min, longest: 180 min)
drying: drying at 0% RH for 120 min
RH (%) test step range: 0%-90%-0%
Experimental Materials: SMS DVS Advantage dynamic vapor adsorption instrument

Another data set concerns the target LSD1 (Homo sapiens (Human), UniProt O60341). As to the kind of experiment: LSD1 inhibition, enzyme fluorescent conjugated method. The format is biochemical. Conditions: 10 concentrations, initial 10 μM, 3-fold dilution, read-out: IC50 (nM) Mean ± standard deviation. The procedure: The experiment was conducted in duplicate with an initial concentration of 10 μM diluted in a gradient of 3 times, and it was repeated twice at different dates.
LSD1 buffer composition: 50 mM Tris-HCl, pH 7.5, 0.05% CHAPS, 1% DMSO.
Reaction time: reacted at room temperature for 1 hour
1.2.1 Adding enzyme to a freshly prepared buffer
1.2.2 Adding a DMSO solution of the compound to the enzyme mixture using Acoustic Technology (Echo 550, LabCyte Inc. Sunnyvale, CA) at nL level, and incubating at room temperature for 30 minutes
1.2.3 Adding the substrate to a freshly prepared buffer
1.2.4 Incubating at room temperature for 1 hour
1.2.5 Preparing to test the mixture
1.2.6 Using Perkin Elmer Envision to read data
1.2.7 Using Excel and GraphPad Prism software to analyze data

Data set [3] can be described thus: Solid stability of the crystal form (XRPD) under high temperature, high humidity and light. The format is physicochemical. The procedure: For the samples placed under the conditions of high temperature (60° C.) and high humidity (relative humidity of 92.5% RH), the bottle opening was sealed with an aluminum foil, and some small holes were pierced in the aluminum foil to ensure that the sample can be sufficiently in contact with ambient air, and the samples were placed in the corresponding constant temperature and humidity ovens. The sample exposed to light (open, not covered with aluminum foil) and the control sample (the entire sample bottle was covered with aluminum foil) were placed in a light box. At each time point, 2 samples were weighed as formal test samples. […] The sample bottles were wrapped with an aluminum foil, and the aluminum foil was pierced with small holes. They were also placed in the corresponding constant temperature and humidity ovens. The sample was taken and detected (by XRPD) at the 5th day and 10th day, and the detection results were compared with the initial detection result at 0 day.

Data set [4] is described as follows: Solvent stability of the crystal form (suspension, 40° C., 2 days). The format is physicochemical. Conditions: for Crystal form: 40° C., 2 days. Here is the method: Appropriate amounts of the compound III were weighed and added to different glass vials, and added respectively with appropriate amount of a solvent or a solvent mixture to prepare a suspension. After added with a magnet rotor and placed at room temperature, the above samples were placed on a constant temperature mixer (40° C.) to be shaken for 2 days (avoid from light). In order to ensure that the sample was as suspended as possible, the amount of the compound and the solvent would be adjusted according to the test phenomenon and even the container used in the experiment may be changed during the experiment. (The dissolved sample was evaporated naturally to dryness).

Regarding `N[C@H]1CC[C@H](c2nc(C3(CN[C@@H]4C[C@H]4c4ccccc4)CC3)no2)CC1` [Crystal form A of Compound III], the results for the “TGI (%) (Day 35)” value in data set [1] (1 mg/kg), in data set [1] (1.5 mg/kg) and in data set [1] (3 mg/kg) were 81.9%, 99.2% and 115.6%, respectively. In addition, the “Tumor volume (mm^3) (Day 35)” value in data set [1] (1 mg/kg) is on record as 178 ± 17 mm^3; in data set [1] (1.5 mg/kg), 121 ± 15 mm^3; in data set [1] (3 mg/kg) it was 68 ± 13 mm^3. Moreover, in data set [1] (NCI-H1417 xenograft tumor model), the “Anti-tumor effect (conclusion)” value is recorded as “excellent anti-tumor effect”. In addition, in data set [2], the Classification of hygroscopicity result is recorded as “slightly hygroscopic”. Besides, in data set [2], the “ΔW (moisture weight gain)” value is 1.14%. The IC50 (usually the concentration that inhibits the measured activity by half) on LSD1 amounted to 8 nM. Besides, the Crystal form result is listed as “Crystal Form A” in data set [3] (0 day (initial)); “Crystal Form A” in data set [3] (High humidity (relative humidity 92.5%, open), 5th day); “Crystal Form A” in data set [3] (High humidity (relative humidity 92.5%, open), 10th day); “Crystal Form A” in data set [3] (High temperature (60° C., open), 5th day); “Crystal Form A” in data set [3] (High temperature (60° C., open), 10th day); “Crystal Form A” in data set [3] (Light (total illuminance = 1.2 × 10^6 Lux·hr/near ultraviolet = 200 w·hr/m^2, open), 5th day). Besides, the Crystal form entry was “Crystal Form A” in data set [3] (Light (total illuminance = 1.2 × 10^6 Lux·hr/near ultraviolet = 200 w·hr/m^2, open), 10th day); “Crystal form A” in data set [4] (Acetonitrile); “Crystal form A” in data set [4] (Isopropanol); “Crystal form A” in data set [4] (Isopropyl acetate); “Crystal form A” in data set [4] (Methanol, dissolved, and then precipitated); “Crystal form A” in data set [4] (Tetrahydrofuran). Moreover, the “Solid stability (conclusion)” value in data set [3] (high temperature, high humidity and strong light) is given as “good stability”. Further, the “Solvent stability (conclusion)” value in data set [4] (in the solvent) is “good stability”.

For the origin of these results see patent US12024494B2, “Salt of LSD1 inhibitor and a polymorph thereof” (CSPC ZHONGQI PHARMACEUTICAL TECHNOLOGY (SHIJIAZHUANG) CO., …, priority 2018, dated 2024).
